Tests used:
weeds [1] = experiment: Post-emergence test (Example B), effect on weeds; assay type: in vivo; settings: test plants 5-15 cm high sprayed, assessed after three weeks
Protocol: To produce an expedient preparation of active substance, 1 part by weight of active substance is mixed with the stated amount of solvent, the stated amount of emulsifier is added, and the concentrate is diluted with water to the required concentration.
The active substance preparation is used to spray test plants which are 5-15 cm high in such a way that the respective desired application rate of active substance per unit area is achieved. The concentration of the spray liquor is chosen so that the respective required application rates of active substance are achieved in 1000 l of water/ha.
After three weeks, the degree of damage to the plants is assessed in % damage by comparison with the development of the untreated control. The meanings are:
0%=no effect (as untreated control)

weeds [2] = experiment: Pre-emergence test (Example A), effect on weeds; assay type: in vivo; settings: soil sprayed 24 hours after sowing, assessed after three weeks
Protocol: To produce an expedient preparation of active substance, 1 part by weight of active substance is mixed with the stated amount of solvent, the stated amount of emulsifier is added and the concentrate is diluted with water to the required concentration.
Seeds of the test plants are sown in normal soil. After 24 hours, the soil is sprayed with the active substance preparation in such a way that the respective desired application rate of active substance per unit area is achieved. The active substance concentration in the spray liquor is selected so that the respective required application rate of active substance is achieved with 1000 litres of water per hectare.
After three weeks, the degree of damage to the plants is assessed in % damage by comparison with the development of the untreated control.

[3] = logP determination by HPLC on reversed phase column (C 18), EEC Directive 79/831 Annex V.A8; assay type: physicochemical; settings: reversed phase C18 HPLC column; pH=2.3
Protocol: Determination of the logP values indicated in Table 1 took place in accordance with EEC Directive 79/831 Annex V.A8 by HPLC (high performance liquid chromatography) on a reversed phase column (C 18). Temperature: 43° C. (a) Eluent for determination in the acidic range: 0.1% aqueous phosphoric acid, acetonitrile; linear gradient from 10% acetonitrile to 90% acetonitrile—corresponding measured results are marked with ^a) in Table 1. Calibration took place with unbranched alkan-2-ones (having 3 to 16 carbon atoms) whose logP values are known (determination of the logP values on the basis of the retention times by linear interpolation between two consecutive alkanones).

Row | chromatographic logP [3] | SMILES | effect on weeds (degree of damage vs untreated control) (weeds [1]) | effect on weeds (degree of damage vs untreated control) (weeds [2])
1 |  | N#C/N=C1\SCCN1Cc1c(Cl)ccc(C(=O)C2C(=O)CCCC2=O)c1Cl [Example 1, 3-[2,6-dichloro-3-[(2,6-dioxocyclohexyl)carbonyl]benzyl]-1,3-thiazolidin-2-ylidenecyanamide] | strong effect on weeds | strong effect on weeds
2 | 2.53 | COC(=O)c1ccc(C(F)(F)F)cc1CN1CCS/C1=N\C#N [Example (IIa-2), methyl 2-[(2-cyanoimino-1,3-thiazolidin-3-yl)methyl]-4-trifluoromethylbenzoate] |  | 
3 | 2.01 | N#C/N=C1\SCCN1Cc1cc(C(F)(F)F)ccc1C(=O)O [Example (II-2), 2-[(2-cyanoimino-1,3-thiazolidin-3-yl)methyl]-4-trifluoro-methylbenzoic acid] |  | 
4 | 2.54 | N#C/N=C1\SCCN1Cc1cc(C(F)(F)F)ccc1C(=O)C1C(=O)CCCC1=O [Example 2, 3-[2-[(2,6-dioxocyclohexyl)carbonyl]-5-trifluoromethyl-benzyl]-1,3-thiazolidin-2-ylidenecyanamide] |  | strong effect on weeds

Source: patent US20040097376A1, “Substituted aryl ketones and their use as herbicides” (priority 2000, published 2004)
